Where two headings read alike, the source gives them in different places.
Target: T1, mAChR M4 (Homo sapiens, UniProt P08173)
T1 construct: expressed in transfected cells; host or cells: CHO-K1 cells stably transfected with M4 cDNA and chimeric G-protein Gqi5
T1 sequence (P08173 1-479): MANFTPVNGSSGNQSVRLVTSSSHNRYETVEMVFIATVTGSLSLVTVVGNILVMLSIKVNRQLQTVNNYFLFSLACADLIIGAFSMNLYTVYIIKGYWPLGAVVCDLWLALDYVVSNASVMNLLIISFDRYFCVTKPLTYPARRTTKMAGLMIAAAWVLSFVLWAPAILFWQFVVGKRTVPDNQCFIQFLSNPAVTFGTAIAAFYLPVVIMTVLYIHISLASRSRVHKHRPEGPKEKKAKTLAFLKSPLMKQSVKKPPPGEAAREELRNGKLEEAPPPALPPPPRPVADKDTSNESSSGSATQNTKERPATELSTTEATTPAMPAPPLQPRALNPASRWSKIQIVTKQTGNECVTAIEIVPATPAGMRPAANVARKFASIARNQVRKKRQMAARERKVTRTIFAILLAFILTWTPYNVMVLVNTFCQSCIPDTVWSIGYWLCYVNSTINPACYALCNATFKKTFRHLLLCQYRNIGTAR
Experiment: mAChR M4 cell-based functional assay (calcium mobilization, potentiation of EC20 acetylcholine response)
Conditions: for Emax at 30 µM: % ACh maximum at 30 μM

[1] = mAChR M4 cell-based functional assay, >10,000 estimated for low potency compounds without plateau, read-out: EC50

Compound | Emax at 30 µM [%] | EC50 [1] [nM] | EC50 (EC50 (nM)) [nM]
Cc1nnc2sc(C(=O)NC3CCN(C(=O)CC4CCCCC4)C3)c(N)c2c1C (centres unmarked) [Example B241] | 64 | 860 | 
Cc1nnc2sc(C(=O)N3CC4(CN(C(=O)c5ccccc5)C4)C3)c(N)c2c1C [Example B404] | 50 | > 10000 | 
Cc1nnc2sc(C(=O)N3CC(F)(c4ccc(S(=O)(=O)C(F)(F)F)cc4)C3)c(N)c2c1C [Example B378] | 46 | 4200 | 
Cc1ccccc1OC(=O)N1CC(NC(=O)c2sc3nnc(C)c(C)c3c2N)C1 [Example B361] | 76 | 11 | 
Cc1nnc2sc(C(=O)NCC3CCS(=O)(=O)CC3)c(N)c2c1C [Example B149] | 44 | > 10000 | 
COc1ncc(-c2ccc(CNC(=O)c3sc4nnc(C)c(C)c4c3N)cc2)cn1 [Example B485] | 58 | 48 | 
Cc1nnc2sc(C(=O)NCc3ccc(-c4ccc5nccnc5c4)cc3)c(N)c2c1C [Example B496] | 66 | 250 | 
Cc1nnc2sc(C(=O)NCc3ccc(S(=O)(=O)N(C)C)cc3)c(N)c2c1C [Example B450] | 65 | 65 | 
Cc1nnc2sc(C(=O)NC3CN(S(C)(=O)=O)C3)c(N)c2c1C [Example B80] | 68 | 210 | 
Cc1nnc2sc(C(=O)NCc3ccc(S(C)(=O)=O)c(F)c3)c(N)c2c1C [Example B33] | 73 | 37 | 
Cc1nnc2sc(C(=O)N3CC4CN(c5ccc(C#N)cn5)CC4C3)c(N)c2c1C (centres unmarked) [Example B438] | 45 | 170 | 
Cc1nnc2sc(C(=O)NC3CN(S(=O)(=O)c4cccc5c4OCCC5)C3)c(N)c2c1C [Example B143] | 90 | 120 | 
Cc1nnc2sc(C(=O)N3CCC(NS(=O)(=O)c4cncn4C)C3)c(N)c2c1C (centres unmarked) [Example B202] | 69 | 3800 | 
Cc1nnc2sc(C(=O)NC3CCN(S(=O)(=O)c4ccccc4OC(F)(F)F)C3)c(N)c2c1C (centres unmarked) [Example B209] | 68 | 310 | 
Cc1nnc2sc(C(=O)NC3CCN(C(=O)Oc4ccccc4)C3)c(N)c2c1C (centres unmarked) [Example B203] | 74 | 100 | 
COc1ccc([C@@H]2C[C@H]2NC(=O)c2sc3nnc(C)c(C)c3c2N)cc1 (single isomer, unassigned) [Example B32] | 73 | 300 | 
Cc1nnc2sc(C(=O)N3C[C@@H]4C[C@@H]3CN4S(C)(=O)=O)c(N)c2c1C [Example B267] | 51 | 5100 | 
Cc1nnc2sc(C(=O)N3CC(F)(c4cccc(-c5ccncc5)c4)C3)c(N)c2c1C [Example B323] | 44 | 87 | 
Cc1nnc2sc(C(=O)NCc3ccc4c(c3)CN(C(C)C)C4=O)c(N)c2c1C [Example B407] | 61 | 220 | 
COc1ccc(C(C)CNC(=O)c2sc3nnc(C)c(C)c3c2N)cc1 (centres unmarked) [Example B73] | 40 | 350 | 
Cc1nnc2sc(C(=O)N3CC(F)(c4ccc(Cl)cc4)C3)c(N)c2c1C [Example B295] | 54 | > 10000 | 

Compound | Emax at 30 µM [%] | EC50 [1] [nM] | EC50 (EC50 (nM)) [nM]
Cc1ccc(S(=O)(=O)NC2CN(C(=O)c3sc4nnc(C)c(C)c4c3N)C2)cc1 [Example B183] | 47 | 490 | 
COc1ccc(C2CCN(C(=O)c3sc4nnc(C)c(C)c4c3N)C2)cc1 (centres unmarked) [Example B164] | 39 | 280 | 
Cc1nnc2sc(C(=O)NCc3ccc(OCF)cc3)c(N)c2c1C [Example B411] | 82 | 53 | 
Cc1nnc2sc(C(=O)NCc3ccc(-c4cncc(F)c4)cc3)c(N)c2c1C [Example B487] | 71 | 37 | 
Cc1nnc2sc(C(=O)N3CCC(C4CCCCC4)C3)c(N)c2c1C (centres unmarked) [Example B379] | 45 | 3900 | 
Cc1nnc2sc(C(=O)N3CC4CN(C(=O)C(C)C)CC4C3)c(N)c2c1C (centres unmarked) [Example B388] | 55 | > 10000 | 
Cc1nnc2sc(C(=O)N3CCC(c4ccccc4)C3)c(N)c2c1C (centres unmarked) [Example B112] | 61 | 630 | 
CCCOC(=O)NC1CN(C(=O)c2sc3nnc(C)c(C)c3c2N)C1 [Example B178] | 60 | 1700 | 
Cc1nnc2sc(C(=O)NC3CN(C(=O)Cc4cccs4)C3)c(N)c2c1C [Example B154] | 88 | 70 | 
Cc1nnc2sc(C(=O)N3CC(NS(=O)(=O)c4cccc5ncccc45)C3)c(N)c2c1C [Example B180] | 43 | 1100 | 
Cc1nnc2sc(C(=O)NC3CCN(S(=O)(=O)c4ccccc4)C3)c(N)c2c1C (centres unmarked) [Example B229] | 68 | 550 | 
Cc1nnc2sc(C(=O)NC3CCN(c4ccccc4F)C3)c(N)c2c1C (centres unmarked) [Example B339] | 74 | 76 | 
Nc1c(C(=O)NCc2ccc(S(=O)(=O)C(F)F)cc2)sc2nnc3c(c12)CCCC3 [Example B427] | 39 | 59 | 
Cc1nnc2sc(C(=O)NC3CCN(c4cccnc4)C3)c(N)c2c1C (centres unmarked) [Example B261] | 53 | 620 | 
Cc1nnc2sc(C(=O)N3CC(S(C)(=O)=O)C3)c(N)c2c1C [Example B406] | 54 | 1700 | 
Cc1nnc2sc(C(=O)N3CC(F)(c4ccc(S(C)(=O)=O)cc4)C3)c(N)c2c1C [Example B383] | 51 | 510 | 
Cc1nnc2sc(C(=O)NC3CN(C(=O)c4ccccc4)C3)c(N)c2c1C [Example B160] | 71 | 78 | 
CS(=O)(=O)c1ccc(CNC(=O)c2sc3nnccc3c2N)cc1 [Example B20] | 41 | > 10000 | 
Cc1nnc2sc(C(=O)N3CC(F)(c4ccc(S(=O)(=O)CF)cc4)C3)c(N)c2c1C [Example B393] | 44 | 400 | 
Cc1nnc2sc(C(=O)NCc3c(F)ccc(F)c3Cl)c(N)c2c1C [Example B85] | 58 | 47 | 
Nc1c(C(=O)NCc2ccc(S(=O)(=O)C(F)(F)F)cc2)sc2nnc3c(c12)CCCC3 [Example B189] | 42 | 420 | 

Compound | Emax at 30 µM [%] | EC50 [1] [nM] | EC50 (EC50 (nM)) [nM]
Cc1nnc2sc(C(=O)NCc3ccc(-c4ccsc4)cc3)c(N)c2c1C [Example B502] | 66 | 580 | 
COc1ccc(C2(NC(=O)c3sc4nnc(C)c(C)c4c3N)CC2)cc1 [Example B301] | 48 | 6400 | 
Cc1cc(F)ncc1-c1ccc(CNC(=O)c2sc3nnc(C)c(C)c3c2N)cc1 [Example B498] | 82 | 330 | 
Cc1nnc2sc(C(=O)NCCNC(=O)OCc3ccccc3)c(N)c2c1C [Example B345] | 64 | 3600 | 
Cc1nnc2sc(C(=O)N3CC(Sc4ccc(F)c(F)c4)C3)c(N)c2c1C [Example B414] | 63 | 340 | 
Cc1nnc2sc(C(=O)NCc3ccc(S(=O)(=O)C(F)(F)F)cc3)c(N)c2c1C [Example B66] | 62 |  | 
Cc1nnc2sc(C(=O)NC3CCC3)c(N)c2c1C [Example B84] | 61 | 1000 | 
COC1(c2ccccc2)CN(C(=O)c2sc3nnc(C)c(C)c3c2N)C1 [Example B170] | 60 | 470 | 
Cc1nnc2sc(C(=O)N3CC4CN(c5ncccn5)CC4C3)c(N)c2c1C (centres unmarked) [Example B434] | 48 | 1100 | 
CCCCC1(F)CN(C(=O)c2sc3nnc(C)c(C)c3c2N)C1 [Example B307] | 55 | 180 | 
Cc1nnc2sc(C(=O)NCCNC(=O)c3ccccc3)c(N)c2c1C [Example B347] | 59 | 1500 | 
Cc1nc(C(F)(F)F)c(S(=O)(=O)N2CC(NC(=O)c3sc4nnc(C)c(C)c4c3N)C2)s1 [Example B101] | 66 | 84 | 
Cc1nnc2sc(C(=O)N3CC(F)(CCC4OCCCO4)C3)c(N)c2c1C [Example B291] | 46 | > 10000 | 
Cc1nnc2sc(C(=O)N3CC(S(=O)(=O)c4ccc(F)c(F)c4)C3)c(N)c2c1C [Example B415] | 44 | 1300 | 
Cc1nnc2sc(C(=O)NCc3ccc(S(=O)(=O)C4CC4)cc3)c(N)c2c1C [Example B92] | 53 |  | 23
COc1cccc(C2(OC)CN(C(=O)c3sc4nnc(C)c(C)c4c3N)C2)c1 [Example B310] | 39 | 1900 | 
CCCCC1(OC)CN(C(=O)c2sc3nnc(C)c(C)c3c2N)C1 [Example B305] | 68 | 870 | 
Cc1nnc2sc(C(=O)NC3CCN(c4ccccc4Cl)C3)c(N)c2c1C (centres unmarked) [Example B264] | 71 | 38 | 
COc1ccc2c(c1)CCN(C(=O)c1sc3nnc(C)c(C)c3c1N)C2 [Example B315] | 57 | 840 | 
Cc1nnc2sc(C(=O)NC3CN(C(=O)CCCc4ccccc4)C3)c(N)c2c1C [Example B120] | 86 | 190 | 
Cc1nnc2sc(C(=O)N3CCC(c4ccccc4)C3C)c(N)c2c1C (centres unmarked) [Example B163] | 54 | 240 | 

— patent US9868746B2, “Substituted 5-aminothieno[2,3-C]pyridazine-6-carboxamide analogs as positive allosteric modulators of the muscarinic acetylcholine receptor M4” (Vanderbilt University, priority 2012, dated 2018)
